Source: US10213415B2, “Compounds as opioid receptor modulators” (JANSSEN PHARMACEUTICA NV, priority 2004, dated 2019)

Tests used:
[1] = target: T1, human mu opioid receptor (Homo sapiens, UniProt P35372); test: Human Mu Opioid Receptor Binding Assay (CHO membranes, 3H-Damgo); details: read-out: hKi μ
T1 construct: purchased Perkin Elmer RBHOMM400UA; host or cells: Chinese Hamster Ovary cells (recombinant expression)
Method in brief: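 Membranes from CHO cells expressing human mu opioid receptor, 300 μg/mL, in 50 mM Tris pH 7.5, 5 mM MgCl2. Incubated with compound and ³H-Damgo (3.6 nM before mixing) for 2 h at room temperature, filtered, counted by scintillation. Nonspecific binding with 1 μM unlabelled Damgo.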

[2] = target: T2, delta opioid receptor (Rattus norvegicus, UniProt P33533); test: Rat Brain Delta Opioid Receptor Binding Assay ([3H]DPDPE); details: rat forebrain membranes, margin of error 10-20%, read-out: r Ki δ
T2 construct: from tissue; host or cells: forebrain of male Wistar rats
T2 sequence (P33533 whole entry): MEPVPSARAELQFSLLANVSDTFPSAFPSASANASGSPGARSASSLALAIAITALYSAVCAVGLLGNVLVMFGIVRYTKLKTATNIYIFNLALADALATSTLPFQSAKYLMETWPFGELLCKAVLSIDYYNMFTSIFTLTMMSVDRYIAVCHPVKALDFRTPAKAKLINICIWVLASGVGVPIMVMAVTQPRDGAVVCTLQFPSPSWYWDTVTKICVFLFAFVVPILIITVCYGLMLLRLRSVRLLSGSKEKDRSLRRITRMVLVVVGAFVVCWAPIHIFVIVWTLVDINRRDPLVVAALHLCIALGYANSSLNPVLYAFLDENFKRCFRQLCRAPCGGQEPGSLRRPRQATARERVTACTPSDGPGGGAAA
Experimental: (§1) Male, Wistar rats (150-250 g, VAF, Charles River, Kingston, N.Y.) are killed by cervical dislocation, and their brains removed and placed immediately in ice cold Tris HCl buffer (50 mM, pH 7.4). The forebrains are separated from the remainder of the brain by a coronal transection, beginning dorsally at the colliculi and passing ventrally through the midbrain-pontine junction. After dissection, the forebrains are homogenized in Tris buffer in a Teflon® glass homogenizer. The homogenate is diluted to a concentration of 1 g of forebrain tissue per 80 mL Tris and centrifuged at 39,000×g for 10 min. The pellet is resuspended in the same volume of Tris buffer containing 5 mM MgCl2 with several brief pulses from a Polytron homogenizer. This particulate preparation is used for the delta opioid binding assays. Following incubation with the delta selective peptide ligand ˜4 nM [^3H]DPDPE at 25° C. for 2.5 h in a 96-well plate with total volume of 1 mL, the plate contents are filtered through Wallac filtermat B sheets on a Tomtec 96-well harvester. The filters are rinsed three times with 2 mL of 10 mM HEPES (pH 7.4), and dried in a microwave oven 2 min twice. To each sample area 2×50 μL of Betaplate Scint scintillation fluid (LKB) is added and analyzed on a LKB (Wallac) 1205 BetaPlate liquid scintillation counter.
(§2) The data are used to calculate either the % inhibition compared to control binding (when only a single concentration of test compound is evaluated) or a Ki value (when a range of concentrations is tested). % inhibition is calculated as: [(total dpm−test compound dpm)/(total dpm−nonspecific dpm)]*100. Kd and Ki values were calculated using GraphPad PRISM data analysis program.

[3] = target: T3, human delta subtype 2 opioid receptor (Homo sapiens, UniProt P41143); test: Human Delta Opioid Receptor Binding Assay (CHO membranes, 3H-Naltrindole); details: read-out: hKi δ
T3 construct: purchased Perkin Elmer RBHODM400UA; host or cells: Chinese Hamster Ovary cells (recombinant expression)
T3 sequence (P41143 whole entry): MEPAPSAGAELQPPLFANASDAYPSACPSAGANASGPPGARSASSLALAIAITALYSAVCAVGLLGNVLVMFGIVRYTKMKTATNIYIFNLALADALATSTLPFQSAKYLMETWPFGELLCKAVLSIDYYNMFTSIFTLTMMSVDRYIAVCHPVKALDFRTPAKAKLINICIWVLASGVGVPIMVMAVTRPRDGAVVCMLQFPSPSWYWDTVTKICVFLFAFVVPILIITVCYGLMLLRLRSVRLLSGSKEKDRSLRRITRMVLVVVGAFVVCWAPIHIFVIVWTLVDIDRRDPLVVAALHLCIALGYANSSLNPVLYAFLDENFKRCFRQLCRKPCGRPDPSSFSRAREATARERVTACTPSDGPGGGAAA
Method in brief: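 Filtration binding on CHO-cell membranes expressing the human receptor, in 50 mM Tris pH 7.5 with 5 mM MgCl2, 30 min at room temperature; 3H-naltrindole diluted to 6 nM before mixing 1:1 with compound. Nonspecific binding defined with 1 μM unlabelled naltrindole; inhibition relative to no-inhibitor wells.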

[4] = target: T4, mu opioid receptor (CHO-hMOR cell membranes) (Homo sapiens, UniProt P35372); test: Mu Opioid Receptor Functional Assay: [35S]GTPγS Binding in CHO-hMOR Cell Membranes, Versions 1 and 2; assay type: biochemical; details: for MOR GTP binding assay_v1 (% I): version 1, % inhibition of agonist-stimulated GTPγS binding; for MOR GTP assay_v1 % of Basal: version 1, basal binding = 100%
T4 construct: purchased Receptor Biology, Inc. (Baltimore, Md.); host or cells: CHO cells (recombinant expression)
T4 sequence (P35372 whole entry): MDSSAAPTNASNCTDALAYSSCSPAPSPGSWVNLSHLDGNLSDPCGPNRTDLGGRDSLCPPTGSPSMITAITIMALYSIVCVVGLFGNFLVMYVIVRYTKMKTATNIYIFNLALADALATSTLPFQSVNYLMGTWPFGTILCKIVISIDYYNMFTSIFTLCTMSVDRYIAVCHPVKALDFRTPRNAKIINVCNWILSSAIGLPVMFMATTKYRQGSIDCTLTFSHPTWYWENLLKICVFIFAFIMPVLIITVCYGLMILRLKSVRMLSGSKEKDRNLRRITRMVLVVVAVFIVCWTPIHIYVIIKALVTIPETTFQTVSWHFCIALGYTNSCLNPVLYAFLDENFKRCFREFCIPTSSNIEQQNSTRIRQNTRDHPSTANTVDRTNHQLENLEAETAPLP
Experimental: CHO-hMOR cell membranes were purchased from Receptor Biology, Inc. (Baltimore, Md.). About 10 mg/ml of membrane protein was suspended in 10 mM TRIS-HCl pH 7.2, 2 mM EDTA, 10% sucrose, and the suspension kept on ice. One ml of membranes was added to 15 ml cold binding assay buffer containing 50 mM HEPES, pH 7.6, 5 mM MgCl2, 100 mM NaCl, 1 mM DTT and 1 mM EDTA. The membrane suspension was homogenized with a Polytron and centrifuged at 3,000 rpm for 10 min. The supernatant was then centrifuged at 18,000 rpm for 20 min. The pellet was resuspended in 10 ml assay buffer with a Polytron.
The membranes were preincubated with wheat germ agglutinin coated SPA beads (Amersham) at 25° C. for 45 min in the assay buffer. The SPA bead (5 mg/ml) coupled membranes (10 μg/ml) were then incubated with 0.5 nM [^35S]GTPγS in the assay buffer. […] A range of concentrations of receptor agonists was used to stimulate [^35S]GTPγS binding. Both basal and non-specific binding was tested in the absence of agonist; non-specific binding determination included 10 μM unlabeled GTPγS.
Compounds were tested for function as antagonists by evaluating their potential to inhibit agonist-stimulated GTPγS binding. Radioactivity was quantified on a Packard TopCount. The following parameters were calculated:
[formula] % Inhibition=(% stimulation by 1 μM SNC80−% stimulation by 1 μM SNC80 in presence of test compound)×100/(% Stimulation by 1 μM SNC80−100)
EC50 values were calculated using GraphPad Prism.

[5] = target: T5, mu opioid receptor (Rattus norvegicus, UniProt P33535); test: Rat Brain Mu Opioid Receptor Binding Assay (and Version 2a, [3H]DAMGO); details: rat forebrain membranes, margin of error 10-20%, read-out: r Ki μ
T5 construct: from tissue; host or cells: forebrain of male Wistar rats
T5 sequence (P33535 whole entry): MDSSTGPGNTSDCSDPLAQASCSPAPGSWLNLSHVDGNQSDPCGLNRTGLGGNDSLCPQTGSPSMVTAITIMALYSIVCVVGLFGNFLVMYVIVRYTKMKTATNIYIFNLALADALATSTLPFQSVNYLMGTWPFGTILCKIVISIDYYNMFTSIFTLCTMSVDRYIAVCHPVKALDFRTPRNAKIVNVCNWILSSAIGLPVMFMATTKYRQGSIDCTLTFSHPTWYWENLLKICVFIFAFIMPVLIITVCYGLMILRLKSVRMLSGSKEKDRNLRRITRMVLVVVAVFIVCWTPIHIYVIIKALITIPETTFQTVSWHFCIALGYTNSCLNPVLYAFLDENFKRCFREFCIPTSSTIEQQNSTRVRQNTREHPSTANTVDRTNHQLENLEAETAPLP
Experimental: as §1, with “mu-opioid” for “delta opioid”, “Following incubation with the delta selective peptide ligand ˜4 nM [^3H]DPDPE at 25° C. for 2.5 h in a 96-well plate with total volume of 1 mL, the plate contents are filtered through Wallac filtermat B sheets on a Tomtec 96-well harvester.” left out, “(pH7.4),” for “(pH 7.4),”
as §2, with “dpm-test” for “dpm−test”, “dpm-nonspecific” for “dpm−nonspecific”
Male, Wistar rats (150-250 g, VAF, Charles River, Kingston, N.Y.) were killed by cervical dislocation, and their brains removed and placed immediately in ice-cold Tris HCl buffer (50 mM, pH 7.4). The forebrains were separated from the remainder of the brain by a coronal transection, beginning dorsally at the colliculi and passing ventrally through the midbrain-pontine junction. After dissection, the forebrains were homogenized in Tris buffer in a Teflon®-glass homogenizer. The homogenate was diluted to a concentration of 1 g of forebrain tissue per 80 mL Tris and centrifuged at 39,000×g for 10 min. The pellet was resuspended in the same volume of Tris buffer containing 5 mM MgCl2 with several brief pulses from a Polytron homogenizer. This particulate preparation was used for the mu opioid binding assay. Following incubation with 0.8 nM of the mu selective ligand [^3H]DAMGO at 25° C. for 2.5 h in a 96-well plate with total 1 mL, the plate contents were filtered through Wallac filtermat B sheets on a Tomtec 96-well harvester. The filters were rinsed three times with 2 mL of 10 mM HEPES (pH 7.4), and dried in a microwave oven. To each sample area, Betaplate Scint scintillation fluid (LKB) was added and the resulting radioactivity quantified on a LKB (Wallac) 1205 BetaPlate liquid scintillation counter. Kd and Ki values were calculated using the GraphPad PRISM data analysis program.

T1 sequence (P35372 whole entry): as the sequence (P35372 whole entry) above

Row | SMILES | Ki [2] [nM] | Ki [5] [nM] | further results
1 | COc1ccc(CN(Cc2nc(-c3ccccc3)c[nH]2)C(=O)[C@@H](N)Cc2c(C)cc(C(N)=O)cc2C)cc1C(=O)O [Cpd 6] | 1.7 |  | Ki [1]: 2 nM
2 | Cc1cc(C(N)=O)cc(C)c1C[C@H](N)C(=O)N(Cc1cccc(C(=O)O)c1)[C@@H](C)c1nc(-c2ccc(Cl)cc2)c(C)[nH]1 [Cpd 12] | 0.08 |  | Ki [1]: 4.1 nM
3 | Cc1cc(O)cc(C)c1C[C@H](N)C(=O)N(C(C)C)[C@@H](Cc1cccc(C#N)c1)c1nc(-c2ccccc2)c[nH]1 [Cpd 122] |  |  | Ki [1]: 12.8 nM; Ki [3]: 107 nM; MOR GTP binding assay_v1 (% I) [4]: 41.93%; MOR GTP assay_v1 % of Basal [4]: 278.08%
4 | Cc1cc(O)cc(C)c1C[C@H](N)C(=O)N(Cc1nc(-c2ccccc2)c[nH]1)C(C)CN(C)C (stereo partly shown) [Cpd 167] |  | 3.15 | Ki [1]: 4.2 nM; MOR GTP binding assay_v1 (% I) [4]: 17.00%; MOR GTP assay_v1 % of Basal [4]: 780.00%
5 | CC(C)C[C@@H](c1nc(-c2ccccc2)c[nH]1)N(C)C(=O)[C@@H](N)Cc1cccc(C(N)=O)c1 [Cpd 168] | 8870 | 5320 | 
6 | CC(C)C[C@@H](c1nc(-c2ccccc2)c[nH]1)N(C)C(=O)[C@@H](N)Cc1cccc(C#N)c1 [Cpd 169] |  | 853 | 
7 | CC(C)[C@@H](c1nc(-c2ccccc2)c[nH]1)N(C)C(=O)[C@@H](N)Cc1ccc(O)cc1 [Cpd 171] |  | 141 | 
8 | Cc1cc(O)cc(C)c1C[C@H](N)C(=O)N[C@@H](Cc1cccc(C(N)=O)c1)c1nc(-c2ccccc2)c[nH]1 [Cpd 172] |  | 150 | 
9 | Cc1cc(O)cc(C)c1C[C@H](N)C(=O)N[C@@H](CC(C)C)c1nc(-c2ccccc2)c[nH]1 [Cpd 176] |  | 156 | 
10 | Cc1cc(C(=O)N2CCOCC2)cc(C)c1C[C@H](N)C(=O)N(C)[C@@H](C)c1nc(-c2ccccc2)c[nH]1 [Cpd 179] |  | 7120 | 
11 | Cc1cc(C(=O)N2CCOCC2)cc(C)c1C[C@H](N)C(=O)N(C)[C@H](C)c1nc(-c2ccccc2)c[nH]1 [Cpd 180] | 5220 | 1210 | 
12 | CNC(=O)c1cc(C)c(C[C@H](N)C(=O)N(C)[C@H](C)c2nc(-c3ccccc3)c[nH]2)c(C)c1 [Cpd 184] |  | 19.5 | MOR GTP binding assay_v1 (% I) [4]: 13.00%; MOR GTP assay_v1 % of Basal [4]: 862.00%
13 | CC(C)[C@H](NC(=O)[C@@H](N)Cc1cccc(C(N)=O)c1)c1nc(-c2ccccc2)c[nH]1 [Cpd 185] | 182 | 6720 | 
14 | CC(C)[C@H](NC(=O)[C@@H](N)Cc1cccc(C#N)c1)c1nc(-c2ccccc2)c[nH]1 [Cpd 186] | 515 | 5310 | 
15 | Cc1cc(O)cc(C)c1C[C@H](N)C(=O)N[C@H](c1nc(-c2ccccc2)c[nH]1)C(C)C [Cpd 187] | 5200 | 121 | 
16 | CC(C)[C@H](NC(=O)[C@@H](N)Cc1ccc(O)cc1)c1nc(-c2ccccc2)c[nH]1 [Cpd 188] | 541 | 307 | 
17 | C[C@@H](c1nc(-c2ccccc2)c[nH]1)N(C)C(=O)[C@@H](N)Cc1ccc(S(N)(=O)=O)cc1 [Cpd 189] | 360 | 277 | 
18 | C[C@@H](NC(=O)[C@@H](N)Cc1ccc(O)cc1)c1nc(-c2ccccc2)c[nH]1 [Cpd 212] | 1280 | 103 | Ki [1]: 55 nM
19 | C[C@H](NC(=O)[C@@H](N)Cc1ccc(O)cc1)c1nc(-c2ccccc2)c[nH]1 [Cpd 213] | 5660 | 1260 | Ki [1]: > 1000 nM
20 | COc1ccc(CN(C(=O)[C@@H](N)Cc2c(C)cc(C(N)=O)cc2C)[C@H](C)c2nc(-c3ccc(Cl)cc3)c(C)[nH]2)cc1C(=O)O [Cpd 278] | 49 | 12 | 
21 | COC(=O)c1cc(CN(C(=O)[C@@H](N)Cc2ccc(O)cc2)[C@@H](C)c2nc(-c3ccccc3)c[nH]2)ccc1OC [Cpd 279] | 5.2 | 0.137 | 
22 | COC(=O)c1cc(CN(C(=O)[C@@H](N)Cc2c(C)cc(C(N)=O)cc2C)[C@H](C)c2nc(-c3ccccc3)c[nH]2)ccc1OC [Cpd 280] | 32 | 3 | 
23 | COC(=O)c1cc(CN(C(=O)[C@@H](N)Cc2ccc(C(N)=O)cc2)[C@H](C)c2nc(-c3ccccc3)c[nH]2)ccc1OC [Cpd 281] | 721 | 399 | 
24 | COC(=O)c1cc(CN(C(=O)[C@H](N)Cc2ccc(C(N)=O)cc2)[C@H](C)c2nc(-c3ccccc3)c[nH]2)ccc1OC [Cpd 284] | 1530 | 1030 | 
25 | COc1ccc(CN(C(=O)[C@@H](N)Cc2c(C)cccc2C)[C@@H](C)c2nc(-c3ccccc3)c[nH]2)cc1C(=O)O [Cpd 292] | 100 | 0.65 | 
26 | COc1ccc(CN(C(=O)[C@@H](N)Cc2ccc(O)cc2)[C@@H](C)c2nc(-c3ccc(Cl)cc3)c(C)[nH]2)cc1C(=O)O [Cpd 293] | 3170 | 646 | 
27 | COc1ccc(CN(C(=O)[C@@H](N)Cc2ccc(O)cc2)[C@@H](C)c2nc(-c3ccccc3)c[nH]2)cc1C(N)=O [Cpd 297] | 44 | 0.11 | 
28 | COc1ccc(CN(C(=O)[C@@H](N)Cc2ccc(O)cc2)[C@@H](C)c2nc(-c3ccccc3)c[nH]2)cc1C(=O)N1CCOCC1 [Cpd 298] | 44 | 0.3 | 
